In paper PMC11480511 (Scientific Reports, 2024):
Values after ≈ are worked out from the molar mass of the structure shown. Like-named read-outs stand apart in the source and are kept apart here.

Tests used:
[1] = tested on: MDA-MB231; experiment: NCI single-dose growth inhibition screen; format: cell-based; settings: Homo sapiens, MDA-MB-231; Breast Cancer MDA-MB231; single dose 10^−5 M
[2] = tested on: SK-MEL-5; experiment: NCI single-dose growth inhibition screen; format: cell-based, human; settings: Homo sapiens, SK-MEL-5, Melanoma SK-MEL-5; single dose 10^−5 M
[3] = tested on: NCI-H23; experiment: NCI single-dose growth inhibition screen; format: cell-based; settings: Homo sapiens; Non-Small Cell Lung Cancer NCI-H23; single dose 10^−5 M
[4] = tested on: MALME-3 M; experiment: NCI single-dose growth inhibition screen; format: cell-based; settings: Homo sapiens; Melanoma MALME-3 M; single dose 10^−5 M
[5] = tested on: ACHN; experiment: NCI single-dose growth inhibition screen; format: cell-based; settings: Homo sapiens; Renal Cancer ACHN; single dose 10^−5 M
[6] = tested on: E. coli ATCC 25,922; experiment: Antibacterial screening, agar cup diffusion method; format: cell-based; settings: read-out: Minimum inhibitory concentrations (MIC, µM) E. coli ATCC 25,922
Experimental: (§1) Anti-bacterial activity of the recently synthesized compounds 3a-k was evaluated at AUMC (Assiut University Mycological Centre), Assiut, Egypt. Assays were done against Gram-negative strains of K. pneumoniae (ATCC 100310, E. coli (ATCC 25922), Pseudomonas aeruginosa (ATCC 27853) and the Gram-positive S. aureus (ATCC 6538) strain utilizing standard agar cup diffusion method. The isolates from the four bacterial species examined were kept in TSB (Trypticase Soya Broth, Becton and Dickinson) with 10% glycerol at -70 °C and then subcultured on TSA (Trypticase Soya Agar, Becton and Dickinson) and TSB for 24 h at 37 °C former to inoculation. Bacterial isolates were then plated on sterile petri plates with 1 × 10^8 CFU/mL (0.5 McFarland turbidity) and 20 mL of Mueller Hinton Agar media (Oxoid) was then loaded. To ensure that the microorganisms were evenly dispersed, the plates were gently rotated before being left to harden on a level surface. Four equally spaced spherical-shaped wells (10 mm diameter) were painstakingly drilled using a sterilized cork bore after media solidification. All tested compounds under test underwent two-fold serial dilutions in a sequential manner. Three replications of 100 µL of each concentration were added to a well using a micropipette. Plates were then incubated for 24-hour at 37 °C. The average of the inhibition zones was then calculated. To determine the MICs, the natural logarithm of each diluted test substance’s concentration was plotted against the average area of the related inhibition zone. Following that, a regression line was created and the intercept on the ‘ln concentration” axis was determined, and the antilogarithm was calculated to indicate the MIC value[34],[63].

[7] = tested on: SK-MEL-28; experiment: NCI single-dose growth inhibition screen; format: cell-based; settings: Homo sapiens; Melanoma SK-MEL-28; single dose 10^−5 M
[8] = tested on: SN12C; experiment: NCI single-dose growth inhibition screen; format: cell-based; settings: Homo sapiens; Renal Cancer SN12C; single dose 10^−5 M
[9] = tested on: TK-10; experiment: NCI single-dose growth inhibition screen; format: cell-based; settings: Homo sapiens; Renal Cancer TK-10; single dose 10^−5 M
[10] = tested on: 786-0; experiment: NCI single-dose growth inhibition screen; format: cell-based; settings: Homo sapiens; Renal Cancer 786-0; single dose 10^−5 M
[11] = tested on: CAKI-1; experiment: NCI single-dose growth inhibition screen; format: cell-based; settings: Homo sapiens; Renal Cancer CAKI-1; single dose 10^−5 M
[12] = tested on: RXF 393; experiment: NCI single-dose growth inhibition screen; format: cell-based; settings: Homo sapiens; Renal Cancer RXF 393; single dose 10^−5 M
[13] = tested on: MDA-MB-435; experiment: NCI single-dose growth inhibition screen; format: cell-based; settings: Homo sapiens; Melanoma MDA-MB-435; single dose 10^−5 M
[14] = tested on: CCRF-CEM; experiment: NCI single-dose growth inhibition screen; format: cell-based; settings: Homo sapiens; Leukemia CCRF-CEM; single dose 10^−5 M
[15] = tested on: SK-MEL-2; experiment: NCI single-dose growth inhibition screen; format: cell-based; settings: Homo sapiens; Melanoma SK-MEL-2; single dose 10^−5 M
[16] = tested on: MDA-MB-468; experiment: NCI single-dose growth inhibition screen; format: cell-based; settings: Homo sapiens; Breast Cancer MDA-MB-468; single dose 10^−5 M
[17] = tested on: K. pneumoniae ATCC 10,031; experiment: Antibacterial screening, agar cup diffusion method; format: cell-based; settings: read-out: Minimum inhibitory concentrations (MIC, µM) K. pneumoniae ATCC 10,031
Experimental: as §1

[18] = tested on: OVCAR-4; experiment: NCI single-dose growth inhibition screen; format: cell-based; settings: Homo sapiens; Ovarian Cancer OVCAR-4; single dose 10^−5 M
[19] = tested on: SF-268; experiment: NCI single-dose growth inhibition screen; format: cell-based; settings: Homo sapiens; CNS Cancer SF-268; single dose 10^−5 M
[20] = tested on: HCT-116; experiment: NCI single-dose growth inhibition screen; format: cell-based; settings: Homo sapiens; Colon Cancer HCT-116; single dose 10^−5 M
[21] = tested on: SR; experiment: NCI single-dose growth inhibition screen; format: cell-based; settings: Homo sapiens; Leukemia SR; single dose 10^−5 M
[22] = target: T1, topoisomerase IIβ (Homo sapiens, UniProt Q02880); experiment: Topoisomerase II inhibition, human DNA topoisomerase Elisa kit; format: biochemical; settings: ± SEM; read-out: Topoisomerase II IC50 µM ± SEM
T1 construct: purchased
Experimental: Two folds of serial dilution was accomplished after standards and the tested compounds were dissolved in sample diluent. Horseradish peroxidase (HRP-avidin) and biotin-conjugated antibody were diluted 10 times each. Each well received 100 µL of each concentration of the standard or test chemicals, which were then added and incubated at 37 °C for 60 min. […] The microtiter plate was rinsed three times and given room to aspirate. After that, the plate was incubated at 37 °C for 60 min with 100 µL of HRP-avidin solution added to each well. After that, the plate was aspirated and cleaned 5 times. Each well received 90 µL of TMB substrate, and the plate was incubated for 30 min. at 37 °C in a light-protected environment. Finally, stop solution (50 µL) was loaded, and within 5 min, the absorbance at 450 nm was measured spectrophotometrically.
Topoisomerase enzyme assay
Topoisomerase I and II inhibitory activity […]
topoisomerase IIβ inhibitory activity utilizing the human DNA topoisomerase Elisa kit.
Standards and the tested compound were dissolved in sample diluent and 2 folds serial dilution was achieved. Biotin-conjugated antibody and avidin conjugated Horseradish Peroxidase (HRP-avidin) were diluted to 10 folds. 100 μL of each concentration of standard or test compound were added to each well. Incubate at 37 °C for 1 h. The liquid in each well was removed. 10 0 μL of Biotin-conjugated antibody solution was added to each well followed by incubation for 1 h at 37 °C. The microtiter plate was allowed to aspirate and washed 3 times. 100 μL of avidin conjugated Horseradish Peroxidase (HRP -avidin) solution was added to each well and the plate was incubated for 1 h at 37 °C. The plate was aspirated and washed 5 times. 90 μL of TMB substrate were added to each well and the plate was incubated for 30 min at 37 °C and protected from light. 50 μL stop so lution was added. The absorbance was measured spectrophotometrically within 5 min at 450 nm .

[23] = Escherichia coli, ATCC25, Gram –ve strain
[24] = Klebsiella pneumoniae, ATCC10, Gram –ve strain

T1 sequence (Q02880 whole entry): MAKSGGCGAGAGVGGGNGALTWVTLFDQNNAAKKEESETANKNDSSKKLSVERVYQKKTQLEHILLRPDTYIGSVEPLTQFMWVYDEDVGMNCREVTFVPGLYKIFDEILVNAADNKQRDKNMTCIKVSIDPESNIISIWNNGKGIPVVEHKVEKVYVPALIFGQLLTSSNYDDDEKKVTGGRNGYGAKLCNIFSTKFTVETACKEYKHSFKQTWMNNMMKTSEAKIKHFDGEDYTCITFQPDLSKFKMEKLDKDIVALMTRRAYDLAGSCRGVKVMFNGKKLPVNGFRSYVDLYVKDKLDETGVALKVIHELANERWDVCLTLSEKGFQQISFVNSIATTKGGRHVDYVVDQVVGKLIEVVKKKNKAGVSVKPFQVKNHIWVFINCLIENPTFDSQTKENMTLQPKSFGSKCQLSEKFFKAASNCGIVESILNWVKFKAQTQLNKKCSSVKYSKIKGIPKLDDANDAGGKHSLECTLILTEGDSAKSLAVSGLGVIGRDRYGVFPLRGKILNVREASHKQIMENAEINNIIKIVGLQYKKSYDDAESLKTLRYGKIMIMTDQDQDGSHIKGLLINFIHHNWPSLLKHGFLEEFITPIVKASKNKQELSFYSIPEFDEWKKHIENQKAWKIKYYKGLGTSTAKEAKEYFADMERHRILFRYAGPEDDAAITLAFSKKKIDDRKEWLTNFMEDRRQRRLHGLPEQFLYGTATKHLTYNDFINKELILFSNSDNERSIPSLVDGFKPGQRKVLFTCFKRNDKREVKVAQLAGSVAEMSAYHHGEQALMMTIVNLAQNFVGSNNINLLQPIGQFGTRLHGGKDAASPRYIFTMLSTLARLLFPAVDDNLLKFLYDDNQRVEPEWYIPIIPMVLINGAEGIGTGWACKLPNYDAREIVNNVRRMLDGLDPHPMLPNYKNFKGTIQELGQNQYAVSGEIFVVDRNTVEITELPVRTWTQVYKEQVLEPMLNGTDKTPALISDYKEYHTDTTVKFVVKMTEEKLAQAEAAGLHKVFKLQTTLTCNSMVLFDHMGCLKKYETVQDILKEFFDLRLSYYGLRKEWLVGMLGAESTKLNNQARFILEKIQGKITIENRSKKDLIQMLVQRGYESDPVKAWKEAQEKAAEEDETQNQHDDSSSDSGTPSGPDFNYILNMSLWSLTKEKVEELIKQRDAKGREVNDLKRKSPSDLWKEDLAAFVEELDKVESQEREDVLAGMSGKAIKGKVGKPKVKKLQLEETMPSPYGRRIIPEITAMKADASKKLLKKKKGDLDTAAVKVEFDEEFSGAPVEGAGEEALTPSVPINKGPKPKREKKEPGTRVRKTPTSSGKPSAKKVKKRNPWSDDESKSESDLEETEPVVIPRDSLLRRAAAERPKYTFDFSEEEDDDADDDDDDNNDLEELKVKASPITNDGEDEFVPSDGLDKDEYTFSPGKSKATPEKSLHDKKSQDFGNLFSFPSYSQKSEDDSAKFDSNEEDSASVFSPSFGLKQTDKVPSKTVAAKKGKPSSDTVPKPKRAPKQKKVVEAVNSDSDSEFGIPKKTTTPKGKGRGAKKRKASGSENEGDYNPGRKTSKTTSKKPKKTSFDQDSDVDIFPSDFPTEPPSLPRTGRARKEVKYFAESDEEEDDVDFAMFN

SMILES | inhibition at 10 µM [1] | inhibition at 10 µM [2] | inhibition at 10 µM [3] | inhibition at 10 µM [4] | inhibition at 10 µM [5] | MIC [6, 23] | melting point | inhibition at 10 µM [7] | inhibition at 10 µM [8] | inhibition at 10 µM [9] | inhibition at 10 µM [10] | inhibition at 10 µM [11] | inhibition at 10 µM [12] | inhibition at 10 µM [13] | inhibition at 10 µM [15] | inhibition at 10 µM [16] | inhibition at 10 µM [18] | inhibition at 10 µM [19] | inhibition at 10 µM [20] | inhibition at 10 µM [21] | further results
COc1cc(/C=C2\SC(=O)N(CCCC(=O)N3CCN(c4cc5c(cc4F)c(=O)c(C(=O)O)cn5C4CC4)CC3)C2=O)cc(OC)c1OC [3 g] | < 0% | < 0% | 2.6% | < 0% | < 0% | 0.25 µM (≈ 0.174 µg/mL) | 252 °C | < 0% | 0.6% | < 0% | < 0% | 2.2% | < 0% | < 0% | < 0% | < 0% | < 0% | 4.4% | < 0% | 5.4% | inhibition at 10 µM [14]: < 0%; MIC ([17]; Gram –ve strain): 0.25 µM (≈ 0.174 µg/mL); MIC [17, 24]: 0.13 to 0.8 µM (≈ 0.0903 to 0.556 µg/mL)
O=C(O)c1cn(C2CC2)c2cc(N3CCN(C(=O)CCCN4C(=O)S/C(=C\c5ccc(Cl)cc5)C4=O)CC3)c(F)cc2c1=O [3 h] | 13.7% | 1.1% | 5.3% | 10.9% | 0.7% | 0.04 µM (≈ 0.0256 µg/mL) | 273 °C | < 0% | 0.4% | 1.1% | 11.3% | 4.4% | < 0% | < 0% | 7.3% | < 0% | 5.1% | 2.3% | 1.8% | 10.7% | inhibition at 10 µM [14]: < 0%
Cc1ccc(/C=C2\SC(=O)N(CCCC(=O)N3CCN(c4cc5c(cc4F)c(=O)c(C(=O)O)cn5C4CC4)CC3)C2=O)cc1 [3c] | < 0% | 3.8% | 1.8% | < 0% | 2.3% | 0.48 µM (≈ 0.297 µg/mL) | 233 to 234 °C | < 0% | < 0% | < 0% | 0.9% | 1.5% | 7.2% | < 0% | < 0% | < 0% | < 0% | 3.7% | < 0% | < 0% | inhibition at 10 µM [14]: 2.9%
O=C(O)c1cn(C2CC2)c2cc(N3CCN(C(=O)CCCN4C(=O)SC(=Cc5cccc([N+](=O)[O-])c5)C4=O)CC3)c(F)cc2c1=O [3d, 1-cyclopropyl-6-fluoro-7-[4-[4-[5-[(3-nitrophenyl)methylene]-2,4-dioxo-thiazolidin-3-yl]butanoyl]piperazin-1-yl]-4-oxoquinoline-3-carboxylic acid] | 8% | 2.3% | 7.9% | 9.8% | 4.2% | 0.2 µM (≈ 0.13 µg/mL) | 263 °C | < 0% | 3.7% | < 0% | 8.5% | 5% | < 0% | < 0% | 2.9% | 0.5% | 2.6% | 2.4% | < 0% | < 0% | inhibition at 10 µM [14]: < 0%; MIC ([17]; Gram –ve strain): 0.13 µM (≈ 0.0845 µg/mL); MIC [17, 24]: 0.13 to 0.8 µM (≈ 0.0845 to 0.52 µg/mL)
COc1ccc(C=C2SC(=O)N(CCCC(=O)N3CCN(c4cc5c(cc4F)c(=O)c(C(=O)O)cn5C4CC4)CC3)C2=O)cc1 [3e, 1-cyclopropyl-6-fluoro-7-[4-[4-[5-[(4-methoxyphenyl)methylene]-2,4-dioxo-thiazolidin-3-yl]butanoyl]piperazin-1-yl]-4-oxoquinoline-3-carboxylic acid] | 12.4% | 3.9% | 2.6% | 2.9% | 1.2% | 1.94 to 2.6 µM (≈ 1.23 to 1.65 µg/mL) |  | < 0% | < 0% | 11.3% | 18.7% | 5.5% | < 0% | < 0% | 6.5% | < 0% | < 0% | 2.3% | 0% | 4.3% | MIC ([6]; Gram –ve strain): 1.94 µM (≈ 1.23 µg/mL); inhibition at 10 µM [14]: < 0%; MIC ([17]; Gram –ve strain): 0.19 µM (≈ 0.121 µg/mL); MIC [17, 24]: 0.13 to 0.8 µM (≈ 0.0825 to 0.508 µg/mL)
COc1ccc(/C=C2\SC(=O)N(CCCC(=O)N3CCN(c4cc5c(cc4F)c(=O)c(C(=O)O)cn5C4CC4)CC3)C2=O)cc1OC [3f] | 0.1% | 1.9% | < 0% | 5.9% | < 0% | 1.94 to 2.6 µM (≈ 1.29 to 1.73 µg/mL) | 241 °C | < 0% | 0.8% | 8.7% | 2.4% | 1.7% | < 0% | < 0% | 2.8% | < 0% | < 0% | < 0% | < 0% | 19.5% | MIC ([6]; Gram –ve strain): 2.23 µM (≈ 1.48 µg/mL); inhibition at 10 µM [14]: < 0%; MIC [17, 24]: > 20 µM
O=C(O)c1cn(C2CC2)c2cc(N3CCN(C(=O)CCCN4C(=O)S/C(=C\c5ccc([N+](=O)[O-])cc5)C4=O)CC3)c(F)cc2c1=O [3k] | 11.2% | 0.8% | 6.2% | < 0% | 0.1% | 0.25 µM (≈ 0.162 µg/mL) | 299 to 300 °C | < 0% | 8.7% | 33.5% | 14.1% | 19.5% | 47.9% | < 0% | < 0% | < 0% | 13.7% | 13.3% | < 0% | 9.7% | IC50 [22]: 18.7 ± 1.02 µM
